According to patent US5686466A, “Tricyclic condensed heterocyclic compounds their production and use” (priority 1993, dated 1997):
Where a name gives a salt, the structure may show the parent alone.

Legend:
[1] = target: T1, Acetylcholinesterase (Rattus norvegicus, UniProt P37136); assay: cholinesterase inhibitory activity using (acetyl-[^3 H])-acetylcholine, S1 fraction of rat cerebral cortex homogenate; assay type: biochemical, male Wistar rat; conditions: 30 min incubation
T1 construct: Using the S1 fraction of a male Wistar rat cerebral cortex homogenate as a source of cholinesterase; from tissue; host or cells: male Wistar rat cerebral cortex homogenate, S1 fraction
T1 sequence (P37136 32-614): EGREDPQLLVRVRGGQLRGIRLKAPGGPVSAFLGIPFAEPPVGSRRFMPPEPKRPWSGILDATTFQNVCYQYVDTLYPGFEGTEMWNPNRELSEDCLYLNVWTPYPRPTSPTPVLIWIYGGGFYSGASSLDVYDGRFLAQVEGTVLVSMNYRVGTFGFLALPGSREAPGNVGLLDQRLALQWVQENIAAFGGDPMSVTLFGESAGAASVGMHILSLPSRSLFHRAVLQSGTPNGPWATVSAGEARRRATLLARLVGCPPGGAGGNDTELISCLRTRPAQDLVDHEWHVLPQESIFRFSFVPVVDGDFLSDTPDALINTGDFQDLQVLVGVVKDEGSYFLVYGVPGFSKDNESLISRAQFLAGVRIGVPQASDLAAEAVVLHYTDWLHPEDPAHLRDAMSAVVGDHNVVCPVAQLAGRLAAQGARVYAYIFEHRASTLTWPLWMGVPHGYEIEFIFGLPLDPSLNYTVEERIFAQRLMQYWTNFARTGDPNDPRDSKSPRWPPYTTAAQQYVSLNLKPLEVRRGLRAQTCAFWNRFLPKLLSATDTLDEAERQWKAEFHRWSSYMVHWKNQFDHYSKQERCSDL
Experimental: The cholinesterase inhibitory activity of the compound of the present invention was tested, using (acetyl-[^3 H])-acetylcholine. Using the S1 fraction of a male Wistar rat cerebral cortex homogenate as a source of cholinesterase, (acetyl-[^3 H])-acetylcholine, as a substrate, and the test compound, as a sample, were incubated for 30 minutes. After the reaction was terminated, a toluene scintillator was added and the reaction mixture was shaken to migrate the [^3 H]-acetic acid resulting from the reaction to the toluene layer, where radioactivity was counted using a liquid scintillation counter to determine the cholinesterase inhibitory activity.
The sample's cholinesterase inhibitory activity was expressed by 50% inhibitory concentration (IC50).

[2] = tested on: [^3 H]-norepinephirine(NE) uptake; assay: monoamine uptake inhibition, [^3 H]-norepinephirine (NE), crude synaptosomal preparations of cerebral cortex and hippocampus; assay type: biochemical; conditions: [^3 H]-NE 11 nM; 37° C; rat synaptosomes; read-out: Monoamine Reuptake Inhibitory Activity IC50, NE
Experimental: (§1) Effects of the compound of this invention on monoamine uptake were investigated using [^3 H]-norepinephirine(NE) and [3H]-serotonin (5-HT). Rats were sacrificed by decapitation. The cerebral cortex and hippocampus were removed and homogenized in 10-15 volumes (W/V) of an ice-cold medium containing 0.32M sucrose. Crude synaptosomal preparations (P2) were isolated after differential centrifugation at 1000×g for 10 min and 20,000×g for 30 min at 4° C. Synaptosomal membranes were suspended in Krebs-Ringer bicarbonate (KRB) solution (116 mM NaCl, 4.8 mM KCl, 1.3 mM CaCl2, 1.2 mM MgSO4, 1.2 mM NaH2 PO4, 25 mM NaHCO3, 0.1 mM EDTA-2Na, 11.1 mM D-glucose, 0.11 mM L-ascorbic acid, 0.01 mM pargyline). Synaptosomal membrane suspension (900 μl) was preincubated with the test compound dissolved in DMSO solution at 37° C. for 5 min. The reaction was initiated by addition of 100 μl of [^3 H]-NE (11 nM in final concentration) or [^3 H]-HT (10 nM in final concentration). Five minutes later, the reaction was stopped by the addition of 4 ml of ice-cold KRB and the reaction mixture was filtered through Whatman CF/B. Filters were washed twice with 4 ml of KRB and the radioactivity bound was counted with liquid scintillant. Imipramine was used as positive control.

[3] = tested on: [3H]-serotonin (5-HT) uptake; assay: monoamine uptake inhibition, [3H]-serotonin (5-HT), crude synaptosomal preparations of cerebral cortex and hippocampus; assay type: biochemical; conditions: [^3 H]-HT 10 nM; 37° C; rat synaptosomes; read-out: Monoamine Reuptake Inhibitory Activity IC50, 5-HT
Experimental: as §1

| SMILES | IC50 [1] [nM] | IC50 [2] [nM] | IC50 [3] [nM] |
| --- | --- | --- | --- |
| CN1CC2CCCc3c(C(=O)CCC4CCN(Cc5ccccc5)CC4)ccc1c32 (stereo not drawn) [16-1] | 154 |  |  |
| O=C(CCN1CCN(Cc2ccccc2)CC1)c1cc2c3c(c1)CCN3C(=O)CC2 [17-1] | 3 |  |  |
| O=C(CCN1CCN(Cc2ccccc2)CC1)c1cc2c3c(c1)CC(=O)N3CCC2 [17-2] | 7.6 |  |  |
| O=C(CCN1CCN(Cc2ccccc2)CC1)c1cc2c3c(c1)CC(=O)N3CCCC2 [17-3] | 17.2 |  |  |
| CC1CC(=O)N2CCc3cc(C(=O)CCN4CCN(Cc5ccccc5)CC4)cc1c32 (stereo not drawn) [17-4] | 9.5 |  |  |
| O=C(CCN1CCN(Cc2ccccc2)CC1)c1cc2c3c(c1)CCC(=O)N3CCC2 [17-6] | 15.1 |  |  |
| O=CN1Cc2cc(C(=O)CCN3CCN(Cc4ccccc4)CC3)ccc2Cc2ccccc21 [17-7] | 33 |  |  |
| O=CN1Cc2cc(C(=O)CCN3CCN(Cc4ccccc4)CC3)ccc2Oc2ccccc21 [17-8] | 47 |  |  |
| O=CN1Cc2cc(C(=O)CCN3CCN(Cc4ccccc4)CC3)ccc2CCc2ccccc21 [17-10] | 96.8 |  |  |
| O=C(CCN1CCN(Cc2ccccc2)CC1)c1ccc2c(c1)C1CCCCC1N2 (stereo not drawn) [19-1] |  | 328 | 1670 |
| CCC(=O)N1CC2CCCc3c(C(=O)CCC4CCN(Cc5ccccc5)CC4)ccc1c32 (stereo not drawn) [20-1] | 182 |  |  |
| Cc1cccc(CN2CCN(CCC(=O)c3cc4c5c(c3)CC(=O)N5CCC4)CC2)c1 [30-1] | 28.7 | 4600 | 95.6 |
| O=C(CCN1CCN(Cc2ccccc2Cl)CC1)c1cc2c3c(c1)CC(=O)N3CCC2 [30-3] | 10.9 |  |  |
| O=C(CCN1CCN(Cc2cccc(Cl)c2)CC1)c1cc2c3c(c1)CC(=O)N3CCC2 [30-4] | 43 |  |  |
| CCc1ccccc1CN1CCN(CCC(=O)c2cc3c4c(c2)CC(=O)N4CCC3)CC1 [30-6] |  | 5960 | 86.3 |
| Cc1ccc(CN2CCN(CCC(=O)c3cc4c5c(c3)CC(=O)N5CCC4)CC2)cc1C [30-8] |  | 643 | 60.7 |
| O=C(CCN1CCN(Cc2ccccc2F)CC1)c1cc2c3c(c1)CC(=O)N3CCC2 [30-10] | 18.9 |  |  |
| O=C(CCN1CCN(Cc2cccc(F)c2)CC1)c1cc2c3c(c1)CC(=O)N3CCC2 [30-11] | 16.9 |  |  |
| O=C(CCN1CCN(Cc2ccc(F)cc2)CC1)c1cc2c3c(c1)CC(=O)N3CCC2 [30-12] | 23.9 |  |  |
| COc1ccccc1CN1CCN(CCC(=O)c2cc3c4c(c2)CC(=O)N4CCC3)CC1 [30-13] | 130 |  |  |
| O=C(CCN1CCN(Cc2ccccc2O)CC1)c1cc2c3c(c1)CC(=O)N3CCC2 [30-16] | 5.8 |  |  |
| Cc1ccccc1CN1CCN(CCC(=O)c2cc3c4c(c2)CCN4C(=O)CC3)CC1 [30-18] | 24.9 |  |  |
| Cc1cccc(CN2CCN(CCC(=O)c3cc4c5c(c3)CCN5C(=O)CC4)CC2)c1 [30-19] | 11.9 | 2820 | 66 |

| SMILES | IC50 [1] [nM] | IC50 [2] [nM] | IC50 [3] [nM] |
| --- | --- | --- | --- |
| O=C(CCN1CCN(Cc2ccccc2Cl)CC1)c1cc2c3c(c1)CCN3C(=O)CC2 [30-21] | 3.6 | 1540 | 88.2 |
| O=C(CCN1CCN(Cc2cccc(Cl)c2)CC1)c1cc2c3c(c1)CCN3C(=O)CC2 [30-22] | 6.2 | 795 | 60.1 |
| O=C(CCN1CCN(Cc2ccccc2F)CC1)c1cc2c3c(c1)CCN3C(=O)CC2 [30-24] | 1.5 |  |  |
| O=C(CCN1CCN(Cc2cccc(F)c2)CC1)c1cc2c3c(c1)CCN3C(=O)CC2 [30-25] | 0.098 | 1310 | 11.7 |
| O=C(CCN1CCN(Cc2ccc(F)cc2)CC1)c1cc2c3c(c1)CCN3C(=O)CC2 [30-26] | 4.4 |  |  |
| Cc1ccc(C)c(CN2CCN(CCC(=O)c3cc4c5c(c3)CCN5C(=O)CC4)CC2)c1 [30-27] | 188 | 559 | 79.8 |
| Cc1ccc(CN2CCN(CCC(=O)c3cc4c5c(c3)CCN5C(=O)CC4)CC2)cc1C [30-28] |  | 2810 | 61.5 |
| O=C(CCN1CCN(Cc2cccc([N+](=O)[O-])c2)CC1)c1cc2c3c(c1)CCN3C(=O)CC2 [30-29] | 29.3 |  |  |
| COc1ccccc1CN1CCN(CCC(=O)c2cc3c4c(c2)CCN4C(=O)CC3)CC1 [30-32] | 91.1 |  |  |
| O=C(CCC1CCN(Cc2ccccc2)CC1)c1cc2c3c(c1)CC(=O)N3CCC2 [30-34] | 0.5 |  |  |
| O=C(CCN1CCN(Cc2cccc([N+](=O)[O-])c2)CC1)c1cc2c3c(c1)CC(=O)N3CCC2 [30-35] | 67.9 |  |  |
| O=C(CCN1CCN(Cc2ccc([N+](=O)[O-])cc2)CC1)c1cc2c3c(c1)CC(=O)N3CCC2 [30-36] |  | 7480 | 46.8 |
| O=C(CCC1CCN(Cc2ccccc2)CC1)c1cc2c3c(c1)CCN3C(=O)CC2 [30-38] | 0.18 |  |  |
| O=C(CCC1CCN(Cc2ccccc2F)CC1)c1cc2c3c(c1)CCN3C(=O)CC2 [30-39] | 0.5 |  |  |
| O=C(CCC1CCN(Cc2cccc(F)c2)CC1)c1cc2c3c(c1)CCN3C(=O)CC2 [30-40] | 0.092 |  |  |
| O=C(CCC1CCN(Cc2ccc(F)cc2)CC1)c1cc2c3c(c1)CCN3C(=O)CC2 [30-41] | 0.47 |  |  |
| O=C(CCC1CCN(Cc2ccccc2Cl)CC1)c1cc2c3c(c1)CCN3C(=O)CC2 [30-42] | 0.54 |  |  |
| O=C(CCC1CCN(Cc2cccc(Cl)c2)CC1)c1cc2c3c(c1)CCN3C(=O)CC2 [30-43] | 0.065 |  |  |
| O=C(CCC1CCN(Cc2ccc(Cl)cc2)CC1)c1cc2c3c(c1)CCN3C(=O)CC2 [30-44] | 59.9 |  |  |
| Cc1ccccc1CN1CCC(CCC(=O)c2cc3c4c(c2)CCN4C(=O)CC3)CC1 [30-45] | 0.304 |  |  |
| Cc1cccc(CN2CCC(CCC(=O)c3cc4c5c(c3)CCN5C(=O)CC4)CC2)c1 [30-46] | 0.2 |  |  |
| Cc1ccc(CN2CCC(CCC(=O)c3cc4c5c(c3)CCN5C(=O)CC4)CC2)cc1 [30-47] | 19.5 |  |  |
| COc1ccccc1CN1CCC(CCC(=O)c2cc3c4c(c2)CCN4C(=O)CC3)CC1 [30-48] | 17.1 |  |  |

| SMILES | IC50 [1] [nM] | IC50 [2] [nM] | IC50 [3] [nM] |
| --- | --- | --- | --- |
| O=C(CCC1CCN(Cc2cccc([N+](=O)[O-])c2)CC1)c1cc2c3c(c1)CCN3C(=O)CC2 [30-52] | 0.36 |  |  |
| O=C(CCC1CCN(Cc2ccc([N+](=O)[O-])cc2)CC1)c1cc2c3c(c1)CCN3C(=O)CC2 [30-53] | 25.4 |  |  |
| Cc1ccc(CN2CCC(CCC(=O)c3cc4c5c(c3)CCN5C(=O)CC4)CC2)c(C)c1 [30-54] | 60.9 |  |  |
| Cc1ccc(C)c(CN2CCC(CCC(=O)c3cc4c5c(c3)CCN5C(=O)CC4)CC2)c1 [30-56] | 18.3 |  |  |
| O=C(CCC1CCN(Cc2ccccc2O)CC1)c1cc2c3c(c1)CCN3C(=O)CC2 [30-58] | 0.12 |  |  |
| O=C(CCC1CCN(Cc2cccc(O)c2)CC1)c1cc2c3c(c1)CCN3C(=O)CC2 [30-59] | 1.12 |  |  |
| O=C(CCC1CCN(Cc2ccc(O)cc2)CC1)c1cc2c3c(c1)CCN3C(=O)CC2 [30-60] | 0.078 |  |  |
| N#Cc1ccccc1CN1CCC(CCC(=O)c2cc3c4c(c2)CCN4C(=O)CC3)CC1 [30-61] | 15.6 |  |  |
| O=C(CCN1CCN(Cc2ccc3c(c2)OCO3)CC1)c1cc2c3c(c1)CC(=O)N3CCC2 [31-1] |  | 6180 | 46.3 |
| O=C(CCN1CCC(Cc2ccccc2)CC1)c1cc2c3c(c1)CC(=O)N3CCC2 [31-2] |  | 73.8 | 8.79 |
| O=CN1Cc2ccccc2-c2ccc(C(=O)CCN3CCC(Cc4ccccc4)CC3)cc2C1 [31-11] |  | 515 | 69.5 |
| O=C(CCN1CCN(Cc2ccccc2)CC1)c1ccc2c(c1)CNc1ccccc1C2 [32-2] | 115 |  |  |
| O=C(CCN1CCN(Cc2ccccc2)CC1)c1ccc2c(c1)CNc1ccccc1O2 [32-3] | 59 |  |  |
| O=C(CCN1CCN(Cc2ccccc2)CC1)c1ccc2c(c1)CN(Cc1ccccc1)Cc1ccccc1-2 [34-1] | 39.3 |  |  |
| COc1ccc(CN2Cc3ccccc3-c3ccc(C(=O)CCN4CCN(Cc5ccccc5)CC4)cc3C2)cc1 [34-2] | 20 |  |  |
| CC(=O)N1Cc2ccccc2-c2ccc(C(=O)CCN3CCN(Cc4ccccc4)CC3)cc2C1 [34-3] | 171 |  |  |
| O=C(CCN1CCN(Cc2ccccc2)CC1)c1ccc2c(c1)CN(C(=O)c1ccccc1)Cc1ccccc1-2 [34-4] |  | 456 | 969 |
| COc1ccc(C(=O)N2Cc3ccccc3-c3ccc(C(=O)CCN4CCN(Cc5ccccc5)CC4)cc3C2)cc1 [34-5] | 31.6 |  |  |
| O=C(CCN1CCC(Cc2ccccc2)CC1)c1ccc2c(c1)CN(C(=O)c1ccccc1)Cc1ccccc1-2 [34-8] |  | 197 | 363 |
| O=C(CCC1CCN(Cc2ccccc2)CC1)c1ccc2c3c(cccc13)CN(Cc1ccccc1)C2 [37-2] | 184 |  |  |
| CN1c2ccc(C(=O)CCC3CCN(Cc4ccccc4)CC3)cc2C2CCCCC21 (stereo not drawn) [37-4] | 136 |  |  |
| CN(C)CCCN1c2ccccc2CCc2ccccc21 [Imipramine, reference compound] |  | 1120 | 63 |
| O=C(CCN1CCN(Cc2ccccc2)CC1)c1ccc2c3c1CCCC3CN2 (stereo not drawn) [compound 2, 1-(1,2,2a,3,4,5-Hexahydrobenz[cd]indol-6-yl)-3-[1-(phenylmethyl)piperazin-4-yl]-1-propanone trihydrochloride] |  | 420 | 594 |
